{"source": "patent US20250230193A1", "about": "“CYCLIC COMPOUND HAVING SELECTIVE KRAS INHIBITORY EFFECT ON HRAS AND NRAS” (CHUGAI SEIYAKU KABUSHIKI KAISHA, priority 2022, published 2025)", "key": {"[1]": {"biological_target": "GDP-bound HRAS wild-type protein (Homo sapiens, UniProt P01112)", "sequence (P01112 whole entry)": "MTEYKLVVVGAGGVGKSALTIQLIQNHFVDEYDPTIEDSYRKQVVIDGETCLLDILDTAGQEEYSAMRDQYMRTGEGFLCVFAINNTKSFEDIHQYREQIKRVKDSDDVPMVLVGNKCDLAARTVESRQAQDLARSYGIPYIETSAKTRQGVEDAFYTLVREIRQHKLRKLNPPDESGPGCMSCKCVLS", "test": "Binding to HRAS by surface plasmon resonance (SPR), Single Cycle Kinetics", "conditions": "for HRAS/KRAS (ratio of KD value with respect to HRAS to KD value with respect to KRAS): GDP-bound HRAS wild-type vs GDP-bound KRAS wild-type"}, "[2]": {"biological_target": "GDP-bound NRAS wild-type protein (Homo sapiens, UniProt P01111)", "sequence (P01111 whole entry)": "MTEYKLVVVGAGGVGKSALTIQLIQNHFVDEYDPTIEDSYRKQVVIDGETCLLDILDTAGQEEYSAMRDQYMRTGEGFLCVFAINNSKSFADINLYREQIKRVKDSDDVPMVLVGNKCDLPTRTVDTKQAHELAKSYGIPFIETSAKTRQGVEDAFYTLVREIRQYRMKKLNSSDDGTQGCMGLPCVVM", "test": "Binding to NRAS by surface plasmon resonance (SPR), Single Cycle Kinetics", "conditions": "for NRAS/KRAS (ratio of KD value with respect to NRAS to KD value with respect to KRAS): GDP-bound NRAS wild-type vs GDP-bound KRAS wild-type"}}}
{"smiles": "C#CC[C@H]1C(=O)N[C@@H]([C@@H](C)CC)C(=O)N(C)CC(=O)N(C)[C@H]2C/C=C\\CCN(C2=O)[C@@H](Cc2ccc(C(F)(F)F)cc2)C(=O)N(C)CC(=O)N[C@@H](CCc2ccc(C(F)(F)F)c(OC)c2)C(=O)N2C[C@H](OCC)C[C@H]2C(=O)NC2(CCC2)C(=O)N(C)[C@@H](C2CCCC2)C(=O)N(C)[C@H](C(=O)N(C)CCC)CC(=O)N1C", "note": "[PP2059]", "values": [{"measurement": "HRAS/KRAS (ratio of KD value with respect to HRAS to KD value with respect to KRAS)", "setting": "[1]; SPR", "value": "A (a compound having 10 or more and less than 20 is denoted as A)"}, {"measurement": "NRAS/KRAS (ratio of KD value with respect to NRAS to KD value with respect to KRAS)", "setting": "[2]; SPR", "value": "A (a compound having 10 or more and less than 20 is denoted as A)"}]}
{"smiles": "CCO[C@@H]1C[C@H]2C(=O)NC3(CCC3)C(=O)N(C)[C@@H](C3CCCC3)C(=O)N(CC)[C@H](C(=O)N3CCOCC3)CC(=O)N(C)[C@@H](CCC(F)F)C(=O)N[C@@H]([C@@H](C)CC)C(=O)N(C)CC(=O)N(C)[C@H]3CCCCCN(C3=O)[C@@H](Cc3ccc(C(F)(F)F)cc3)C(=O)N(C)CC(=O)N[C@@H](CCc3cc(F)c(C(F)(F)F)c(F)c3)C(=O)N2C1", "note": "[PP0948]", "values": [{"measurement": "HRAS/KRAS (ratio of KD value with respect to HRAS to KD value with respect to KRAS)", "setting": "[1]; KD ratio, SPR", "value": "A (a compound having 10 or more and less than 20 is denoted as A)"}, {"measurement": "NRAS/KRAS (ratio of KD value with respect to NRAS to KD value with respect to KRAS)", "setting": "[2]; KD ratio, SPR", "value": "A (a compound having 10 or more and less than 20 is denoted as A)"}]}
{"smiles": "CCC[C@H]1C(=O)N[C@@H]([C@@H](C)CC)C(=O)N(C)CC(=O)N(C)[C@H]2C/C=C\\CCN(C2=O)[C@@H](Cc2ccc(C(F)(F)F)cc2)C(=O)N(C)CC(=O)N[C@@H](CCc2cc(F)c(C(F)(F)F)c(F)c2)C(=O)N2C[C@H](OCC)C[C@H]2C(=O)NC2(CCC2)C(=O)N(C)[C@@H](C2CCCC2)C(=O)N(C)[C@H](C(=O)N(CC)CC)CC(=O)N1C", "note": "[PP1310]", "values": [{"measurement": "HRAS/KRAS (ratio of KD value for GDP-bound HRAS wild-type protein to KD value for KRAS)", "setting": "[1]; SPR, KD ratio class", "value": "A (a compound having 10 or more and less than 20 is denoted as A)"}, {"measurement": "NRAS/KRAS (ratio of KD value for GDP-bound NRAS wild-type protein to KD value for KRAS)", "setting": "[2]; SPR, KD ratio class", "value": "AA (a compound having 20 or more is denoted as AA)"}]}
{"smiles": "CC[C@H](C)[C@@H]1NC(=O)[C@H](CC(C)C)N(C)C(=O)C[C@@H](C(=O)N2CCOCC2)N(C)C(=O)[C@H](C2CCCC2)N(C)C(=O)C2(CCCC2)NC(=O)[C@@H]2CCCN2C(=O)[C@H](CCc2cc(F)c(C(F)(F)F)c(F)c2)NC(=O)CN(C)C(=O)[C@H](Cc2ccc(C(F)(F)F)cc2)N2CCCCC[C@@H](C2=O)N(C)C(=O)[C@@H]2CCN2C1=O", "note": "[PP0484]", "values": [{"measurement": "HRAS/KRAS (ratio of KD value with respect to GDP-bound HRAS wild-type protein to KD value with respect to KRAS)", "setting": "[1]; SPR", "value": "B (a compound having 3 or more and less than 10 is denoted as B)"}, {"measurement": "NRAS/KRAS (ratio of KD value with respect to GDP-bound NRAS wild-type protein to KD value with respect to KRAS)", "setting": "[2]; SPR", "value": "A (a compound having 10 or more and less than 20 is denoted as A)"}]}
{"smiles": "CCCOC[C@H]1C(=O)N[C@@H]([C@@H](C)CC)C(=O)N(C)CC(=O)N(C)[C@H]2C/C=C\\CCN(C2=O)[C@@H](Cc2ccc(C)cc2)C(=O)N(C)CC(=O)N[C@@H](CCc2ccc(C(F)(F)F)c(OC)c2)C(=O)N2C[C@H](OCC)C[C@H]2C(=O)NC2(CC(C)(C)C2)C(=O)N(C)[C@@H](CC(C)(C)C)C(=O)N(C)[C@H](C(=O)N(C)C)CC(=O)N1C", "note": "[PP2712]", "values": [{"measurement": "HRAS/KRAS (ratio of KD value with respect to GDP-bound HRAS wild-type protein to KD value with respect to KRAS)", "setting": "[1]; class symbols", "value": "B (a compound having 3 or more and less than 10 is denoted as B)"}, {"measurement": "NRAS/KRAS (ratio of KD value with respect to GDP-bound NRAS wild-type protein to KD value with respect to KRAS)", "setting": "[2]; class symbols", "value": "A (a compound having 10 or more and less than 20 is denoted as A)"}]}
{"smiles": "CCC[C@H]1C(=O)N[C@@H]([C@@H](C)CC)C(=O)N(C2CC2)CC(=O)N(C)[C@H]2C/C=C\\CCN(C2=O)[C@@H](Cc2ccc(C(F)(F)F)cc2)C(=O)N(C)CC(=O)N[C@@H](CCc2ccc(C(F)(F)F)c(OC)c2)C(=O)N2C[C@H](OCC)C[C@H]2C(=O)N(C)C2(CCC2)C(=O)N(C)[C@@H](C(CC)CC)C(=O)N(C)[C@H](C(=O)N(C)C)CC(=O)N1C", "note": "[PP2313]", "values": [{"measurement": "HRAS/KRAS (ratio of KD value with respect to HRAS to KD value with respect to KRAS)", "setting": "[1]; SPR", "value": "A (a compound having 10 or more and less than 20 is denoted as A)"}, {"measurement": "NRAS/KRAS (ratio of KD value with respect to NRAS to KD value with respect to KRAS)", "setting": "[2]; SPR", "value": "AA (a compound having 20 or more is denoted as AA)"}]}
{"smiles": "CC[C@H](C)[C@@H]1NC(=O)[C@H](CC(C)C)NC(=O)C[C@@H](C(=O)N2CCOCC2)N(C)C(=O)[C@H](C2CCCC2)N(C)C(=O)C2(CCCC2)NC(=O)[C@@H]2CCCN2C(=O)[C@H](CCc2cc(F)c(C(F)(F)F)c(F)c2)NC(=O)CN(C)C(=O)[C@H](Cc2ccc(C(F)(F)F)cc2)N2CCCCC[C@@H](C2=O)N(C)C(=O)CN(C)C1=O", "note": "[PP0516]", "values": [{"measurement": "HRAS/KRAS (ratio of KD value with respect to GDP-bound HRAS wild-type protein to KD value with respect to KRAS)", "setting": "[1]; SPR", "value": "B (a compound having 3 or more and less than 10 is denoted as B)"}, {"measurement": "NRAS/KRAS (ratio of KD value with respect to GDP-bound NRAS wild-type protein to KD value with respect to KRAS)", "setting": "[2]; SPR", "value": "B (a compound having 3 or more and less than 10 is denoted as B)"}]}
{"smiles": "CC[C@H](C)[C@@H]1NC(=O)[C@H](CC(C)C)N(C)C(=O)C[C@@H](C(=O)N2CCOCC2)N(C)C(=O)[C@H](C2CCCC2)NC(=O)C2(CCCC2)NC(=O)[C@@H]2CCCN2C(=O)[C@H](CCc2cc(F)c(C(F)(F)F)c(F)c2)NC(=O)CN(C)C(=O)[C@H](Cc2ccc(C(F)(F)F)cc2)N2CCCC[C@@H](C2=O)N(C)C(=O)CN(C)C1=O", "note": "[PP0540]", "values": [{"measurement": "HRAS/KRAS (ratio of KD value with respect to GDP-bound HRAS wild-type protein to KD value with respect to KRAS)", "setting": "[1]; SPR", "value": "B (a compound having 3 or more and less than 10 is denoted as B)"}, {"measurement": "NRAS/KRAS (ratio of KD value with respect to GDP-bound NRAS wild-type protein to KD value with respect to KRAS)", "setting": "[2]; SPR", "value": "B (a compound having 3 or more and less than 10 is denoted as B)"}]}
